Assay results reported in a melting point compilation (Tetko et al.).

| SMILES | melting point |
| --- | --- |
| COC(=O)Cc1ccc(O)cc1 | 57 °C |
| CCOC(=O)c1cc(-c2cccs2)n[nH]1 | 137 to 139 °C |
| CCOP(=S)(Oc1ccc([N+](=O)[O-])cc1)c1ccccc1 (stereo unspecified) | 36 °C |
| CC1(C)OC[C@H](CC(N)=O)O1 | 108 to 109 °C |
| O=Cc1cc(Cl)cc(Cl)c1[N+](=O)[O-] | 91 °C |
| CC(=O)C1CC[C@]2(C)[C@H]3CC[C@]4(C)C(O)CC[C@H]4[C@@H]3CC[C@@]2(C)C1 (stereo partly specified) | 152 °C |
| CCCCCCCCCCCCCCCCCCCCCCCCCCO | 80 °C |
| CCCCCC(O)C=CC1C(O)CC(O)C1CC=CCCCC(=O)O (stereo unspecified) | 30 °C |
| O=C1c2ccccc2C(=O)c2c1ccc1ccccc21 | 170 °C |
| c1ccc(Cc2ccc3ccccc3c2)cc1 | 58 °C |
| Cc1c(N(C)C)c(=O)n(-c2ccccc2)n1C | 134 °C |
| O=C(c1ccccc1)c1cc([N+](=O)[O-])ccc1Cl | 83 to 86 °C |
| CCCCCCCCC=O | -18 °C |
| CCOC(=O)C(Cc1ccccc1)(Cc1ccccc1)C(C)=O | 58 °C |
| COc1cc2cncc(Cc3ccccc3)c2cc1O | 193 °C |
| O=C(O)/C=C/Cl | 82 °C |
| CC12CC1(C)C(=O)N(c1cc(Cl)cc(Cl)c1)C2=O (stereo unspecified) | 166 °C |
| CCC(C)(N)P(=O)(O)O (stereo unspecified) | 268 to 272 °C |
| Clc1ccc(CSSCc2ccc(Cl)cc2)cc1 | 59 to 61 °C |
| CCOC(=O)c1ccc(Br)cc1 | 18 °C |
| Oc1c(F)cccc1Cl | 63 °C |
| CC(C)C(O)(c1ccc(OC(F)(F)F)cc1)c1cncnc1 (stereo unspecified) | 95.3 °C |

| SMILES | melting point |
| --- | --- |
| NNC(=O)COc1ccc(Cl)cc1Cl | 153 to 157 °C |
| O=[N+]([O-])c1ccc(-c2ccccc2)cc1 | 114 °C |
| Cn1cnc2c(N)ncnc21 | 300 to 302 °C |
| NNC(=S)Nc1cccc(Cl)c1 | 132 °C |
| OCc1ccc(-c2cccs2)s1 | 51 to 54 °C |
| COC1=C(C(C)(C)C(C)C)C(=O)C(=O)c2ccccc21 | 93.3 to 93.6 °C |
| Cc1n[nH]cc1-c1ccccc1 | 142 °C |
| N#CCc1nc2ccccc2[nH]1 | 210 to 215 °C |
| Nc1ccc(C2=NN(c3ccccc3)C(=O)C2)cc1 | 160 °C |
| O=C(/C(=N/O)c1ccccc1)c1ccc2c3c(cccc13)CC2 | 204 °C |
| NNc1ccc(C(=O)O)cc1 | 205 °C |
| O=C(O)c1ccccc1/N=N/C1SC(=S)N(c2ccccc2)C1=O (stereo unspecified) | 199 °C |
| Cc1c(/N=C/c2cc(Br)cc(Br)c2O)c(=O)n(-c2ccccc2)n1C | 228 °C |
| COC(=O)c1occc1C | 35 °C |
| O=[N+]([O-])c1ccc(S(=O)(=O)Oc2ccccc2)cc1 | 114 to 116 °C |
| Cc1cc(O)c2ccccc2c1O | 169 °C |
| c1cc(NNc2cccc(-n3cccn3)c2)cc(-n2cccn2)c1 | 169 to 171 °C |
| OCc1ccc(I)c(O)c1 | 148 °C |
| FC(F)(F)c1cc(Cl)c(Cl)c(Cl)c1 | -10 to -8 °C |
| N#CC12CC3CC(CC(C3)C1)C2 | 195 °C |
| CC(C)(C)c1cc(C(=O)c2ccccc2)c(O)cc1O | 144 to 148 °C |
| Cc1ccccc1NC(=N)NC(=N)N | 144 °C |

| SMILES | melting point |
| --- | --- |
| CC(C)(C)P(=O)(O)O | 188 to 192 °C |
| COc1ccc2c(c1)CCC2=O | 109 °C |
| NC(CCc1ccccc1)C(=O)O (single isomer, unassigned; (-)) | 300 °C |
| Cc1nc(Cl)c(C#N)c(C)c1Cl | 82 to 83 °C |
| CCCCCCCCCCCCCCCC(CCCC)c1ccccc1 (stereo unspecified) | 30.2 °C |
| O=Cc1cc(F)ccc1O | 84 °C |
| CCOC(=O)N1COCc2c1ccc1cc3ccc(NC)c(CO)c3nc21 | 146 °C |
| O=C(Cl)COc1ccc(Cl)cc1 | 19 °C |
| O=Cc1ccc(-c2ccc(C(F)(F)F)cn2)cc1 | 91 to 93 °C |
| O=C1C=C(NCc2cccc(Cl)c2)C(=O)c2ccccc21 | 191 °C |
| O=C(Cl)c1ccc(-c2ccccn2)s1 | 140 to 141 °C |
| Fc1ccccc1C1=NCC(=S)N(CC(F)(F)F)c2ccc(Cl)cc21 | 138 °C |
| COc1ccc(C=Nn2c(C)cc(C)c(C#N)c2=O)cc1 | 249 to 250 °C |
| C#CC1(O)CCC2C3CCC4CC(O)CCC4(C)C3CCC21C (stereo unspecified) | 257 °C |
| O=C(CBr)c1ccc(C(F)(F)F)cc1 | 45 to 46 °C |
| O=[N+]([O-])c1cc(O)ccc1Cl | 127 °C |
| CCC(C)OC(C)CC (stereo unspecified) | -100 °C |
| C=CCc1ccc2c(c1)OCO2 | 11.2 °C |
| N#Cc1ccc(OC2CCOCC2)nc1 | 134 to 135 °C |
| Brc1n[nH]c2nc3ccccc3nc12 | 273 to 276 °C |
| NS(=O)(=O)c1ccc(Br)s1 | 139 to 141 °C |
| O=C(CCl)Nc1ccc(F)cc1F | 79 to 81 °C |

| SMILES | melting point |
| --- | --- |
| COC(=O)c1ccc(C#Cc2ccccc2)o1 | 79 to 82 °C |
| CC(C)NC(=O)CN1CCNCC1 | 82 to 88 °C |
| CCCCCC(C)=O | -35 °C |
| Nc1ccc(N=Nc2ccccc2)cc1 | 127 °C |
| CC(C)CCCC(C)C1CCC2C3CC(=O)C4CC(O)CCC4(C)C3CCC12C (stereo unspecified) | 140 to 142 °C |
| CC(C)(O)C(N)C(=O)O (racemic) | 200 to 202 °C |
| CC1=C(c2ccccc2)c2ccccc2C1 | 58 to 58.5 °C |
| O=C(CNc1cccc(NCC(=O)c2ccccc2)c1)c1ccccc1 | 164 °C |
| CCCCCCCCCCCCCCC(Br)C(=O)O (stereo unspecified) | 52 to 56 °C |
| CCCC(O)C(O)(CC)C1CCCCC1 (stereo unspecified) | 78 °C |
| Nc1cscc1S(=O)(=O)c1ccccc1 | 125 to 126 °C |
| COc1ccc(/C=C(\Oc2ccccc2)c2nc3ccccc3s2)cc1 | 151 °C |
| O=C(Nc1ccccn1)c1cc([N+](=O)[O-])cc([N+](=O)[O-])c1 | 201 °C |
| CC(C)=NN=C(C)C | -12.5 °C |
| Nc1cc(Cl)cnc1Br | 141 to 143 °C |
| Oc1ccccc1N=CC=Nc1ccccc1O | 201 to 205 °C |
| COC(=O)C1=C(N)CCN(Cc2ccccc2)C1 | 87 to 89 °C |
| O=C1NN(c2ccccc2)C(=O)C1=CNc1ccccc1 | 276 °C |
| CCOC(=O)/C(C#N)=C/c1ccc(O)cc1 | 171 to 172 °C |
| CC(=O)c1cc(C)c(Br)cc1O | 88 °C |
| CCN(CC)C(=O)SCc1ccc(Cl)cc1 | 3.3 °C |
| FC(F)(F)C(Cl)Cl | -107 °C |

| SMILES | melting point |
| --- | --- |
| Cc1cc2c(C#N)c3ccc4ccccc4n3c(=O)c2c(C)n1 | 243 °C |
| CN(C)C(=S)SC(=S)N(C)C | 106 to 110 °C |
| O=C1c2ncccc2-c2cccnc21 | 229 °C |
| O=C(Cl)/C=C/c1cccc(C(F)(F)F)c1 | 30 °C |
| O=c1oc(-c2c(F)cccc2Cl)cc2ccccc12 | 241 °C |
| O=c1[nH]c2ncccc2o1 | 214 to 215 °C |
| N=C(N)NCCS(=O)(=O)O | 263 to 265 °C |
| CCOC(=O)Oc1c(OC)cc(C(=O)OC2CC3CN4CCc5c([nH]c6cc(OC)ccc56)C4CC3C(C(=O)OC)C2OC)cc1OC (stereo unspecified) | 177 °C |
| CCOC(=O)c1sc(SCc2ccccc2)c2c1CC(C)(C)CC2=O | 119 to 122 °C |
| O=C(O)c1ccc(OCC(F)(F)F)nc1 | 174 °C |
| CCn1nc(C)cc1C(=O)O | 139 °C |
| CC(=O)NCCO | 16 °C |
| CCNCC(O)c1cccc(O)c1 (stereo unspecified) | 148 °C |
| Cc1ccc(-c2cc(N)[nH]n2)cc1 | 153 to 154 °C |
| O=C(C=Cc1ccc(-c2ccccc2)o1)c1ccco1 | 99 to 101 °C |
| CCOC(=O)c1cn[nH]c1NC(=O)Nc1ccc(Cl)c(Cl)c1 | 269 to 270 °C |
| OCc1csc(-c2ccc(C(F)(F)F)cc2)n1 | 107 °C |
| O=C1C=CC(=O)N1c1ccc(Nc2ccccc2)c2ccccc12 | 207 °C |
| O=C(O)C(F)(F)C(F)(F)C(F)(F)C(F)(F)C(F)(F)C(F)(F)C(F)(F)C(F)(F)C(F)(F)F | 87.4 to 88.2 °C |
| CCC1(c2ccccc2)C(=O)NC(=O)N(C)C1=O (stereo unspecified) | 176 °C |
| O=C(NCSCc1ccccc1)c1ccccc1 | 79 to 80 °C |
| Nc1ncnc2c1ncn2CCCNC(=O)c1cc([N+](=O)[O-])cc([N+](=O)[O-])c1 | 234 °C |

| SMILES | melting point |
| --- | --- |
| Cc1c(Br)cc([N+](=O)[O-])c(N)c1C | 153 °C |
| CCOC(=O)Nc1ccc2cc3ccc(N)c(CO)c3nc2c1 | 135 °C |
| C=Cc1scnc1C | -15 °C |
| Cc1ccnc(N)c1[N+](=O)[O-] | 136 to 141 °C |
| Cc1ccc(C(C)(Cl)C(=O)O)cc1 (stereo unspecified) | 112 °C |
| C=C(C)[C@H]1CC=C(C)C(=O)C1 | 89 °C |
| CN=C=O | -45 °C |
| Cc1cccc2c1[nH]c(=O)c1cc(NC(=O)c3ccccc3)c(=O)oc12 | > 300 °C |
| CC(=O)OC1CCC2(C)C(CCC3C2CCC2(C)C3CCC(=O)C2(C)OC(C)=O)C1 (stereo unspecified) | 195 to 207 °C |
| COc1ccc([N+](=O)[O-])cc1N=C=S | 105 to 107 °C |
| Cc1nc2ccc(N)cc2s1 | 122 to 124 °C |
| NN=C(/C(=N/N)c1ccccc1)c1cccc2ccccc12 | 217 to 218 °C |
| BrCc1cccc2cccnc12 | 81 to 82 °C |
| OC(CS)C(O)CS (stereo unspecified) | 83 °C |
| O=c1[nH]c2ccccc2n1C1=CCNCC1 | 195 to 200 °C |
| Clc1cc2c(cc1Cl)-c1cc(Cl)c(Cl)cc1-2 | 237 to 240 °C |
| Oc1cc(C(F)(F)F)nc2ccc(C(F)(F)F)cc12 | 274 to 277 °C |
| N#Cc1cccc(C[C@H](NC(=O)OCC2c3ccccc3-c3ccccc32)C(=O)O)c1 | 116 °C |
| CC(C)NC(=O)COC(=O)c1ccccc1 | 130 °C |
| O=C=NS(=O)(=O)c1ccc(F)cc1 | 32 to 39 °C |
| COc1ccc(C(=O)C2CC2)cc1 | 42 °C |
